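Grown in 96-well plates, cells were treated for 48 hours with each compound at five concentrations. Insufficient inhibition: endpoint recorded as highest concentration tested. At the TGI there is no net growth.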
Tests used:
Experiment in all cases: NCI tumour cell line growth inhibition, 48 h
786-0 renal = system: 786-0 renal
A498 renal = system: A498 renal
A549 NSCLC = system: A549 NSCLC
ACHN renal = system: ACHN renal
CAKI-1 renal = system: CAKI-1 renal
CCRF-CEM leukemia = system: CCRF-CEM leukemia
COLO 205 colon = system: COLO 205 colon
DLD-1 colon = system: DLD-1 colon
EKVX NSCLC = system: EKVX NSCLC
HCC-2998 colon = system: HCC-2998 colon
HCT-116 colon = system: HCT-116 colon
HCT-15 colon = system: HCT-15 colon
HL-60(TB) leukemia = system: HL-60(TB) leukemia
HOP-18 NSCLC = system: HOP-18 NSCLC
HOP-62 NSCLC = system: HOP-62 NSCLC
HOP-92 NSCLC = system: HOP-92 NSCLC
HT29 colon = system: HT29 colon
IGROV1 ovarian = system: IGROV1 ovarian
K-562 leukemia = system: K-562 leukemia
KM12 colon = system: KM12 colon
KM20L2 colon = system: KM20L2 colon
LOX IMVI melanoma = system: LOX IMVI melanoma
LXFL 529 NSCLC = system: LXFL 529 NSCLC
M14 melanoma = system: M14 melanoma
M19-MEL melanoma = system: M19-MEL melanoma
MALME-3M melanoma = system: MALME-3M melanoma
MOLT-4 leukemia = system: MOLT-4 leukemia
NCI-H226 lung = system: NCI-H226 lung
NCI-H23 lung = system: NCI-H23 lung
NCI-H460 lung = system: NCI-H460 lung
NCI-H522 lung = system: NCI-H522 lung
OVCAR-3 ovarian = system: OVCAR-3 ovarian
OVCAR-5 ovarian = system: OVCAR-5 ovarian
OVCAR-8 ovarian = system: OVCAR-8 ovarian
RPMI-8226 leukemia = system: RPMI-8226 leukemia
RXF 393 renal = system: RXF 393 renal
SF-295 CNS = system: SF-295 CNS
SF-539 CNS = system: SF-539 CNS
SK-MEL-5 melanoma = system: SK-MEL-5 melanoma
SK-OV-3 ovarian = system: SK-OV-3 ovarian
SN12C renal = system: SN12C renal
SNB-19 CNS = system: SNB-19 CNS
SNB-75 CNS = system: SNB-75 CNS
SR leukemia = system: SR leukemia
SW-620 colon = system: SW-620 colon
TK-10 renal = system: TK-10 renal
U251 CNS = system: U251 CNS
UACC-257 melanoma = system: UACC-257 melanoma
UACC-62 melanoma = system: UACC-62 melanoma
UO-31 renal = system: UO-31 renal
BT-549 breast = system: BT-549 breast
DU-145 prostate = system: DU-145 prostate
HS 578T breast = system: HS 578T breast
MCF7 breast = system: MCF7 breast
MDA-MB-231 breast = system: MDA-MB-231 breast
MDA-MB-435 = system: MDA-MB-435
MDA-N = system: MDA-N
NCI/ADR-RES ovarian = system: NCI/ADR-RES ovarian
OVCAR-4 ovarian = system: OVCAR-4 ovarian
PC-3 prostate = system: PC-3 prostate
SF-268 CNS = system: SF-268 CNS
SK-MEL-2 melanoma = system: SK-MEL-2 melanoma
SK-MEL-28 melanoma = system: SK-MEL-28 melanoma
SNB-78 CNS = system: SNB-78 CNS
T-47D breast = system: T-47D breast

Cc1cccc(C)c1NC(=O)CCC(=O)NC(N)=S
TGI (786-0 renal): > 100 µM | TGI (A498 renal): > 100 µM | TGI (A549 NSCLC): > 100 µM | TGI (ACHN renal): > 100 µM | TGI (CAKI-1 renal): > 100 µM | TGI (CCRF-CEM leukemia): > 100 µM | TGI (COLO 205 colon): > 100 µM | TGI (DLD-1 colon): > 100 µM | TGI (EKVX NSCLC): > 100 µM | TGI (HCC-2998 colon): > 100 µM | TGI (HCT-116 colon): > 100 µM | TGI (HCT-15 colon): > 100 µM | TGI (HL-60(TB) leukemia): > 100 µM | TGI (HOP-18 NSCLC): > 100 µM | TGI (HOP-62 NSCLC): > 100 µM | TGI (HOP-92 NSCLC): > 100 µM | TGI (HT29 colon): > 100 µM | TGI (IGROV1 ovarian): > 100 µM | TGI (K-562 leukemia): > 100 µM | TGI (KM12 colon): > 100 µM | TGI (KM20L2 colon): > 100 µM | TGI (LOX IMVI melanoma): > 100 µM | TGI (LXFL 529 NSCLC): > 100 µM | TGI (M14 melanoma): > 100 µM | TGI (M19-MEL melanoma): > 100 µM | TGI (MALME-3M melanoma): > 100 µM | TGI (MOLT-4 leukemia): > 100 µM | TGI (NCI-H226 lung): > 100 µM | TGI (NCI-H23 lung): > 100 µM | TGI (NCI-H460 lung): > 100 µM | TGI (NCI-H522 lung): > 100 µM | TGI (OVCAR-3 ovarian): > 100 µM | TGI (OVCAR-5 ovarian): > 100 µM | TGI (OVCAR-8 ovarian): > 100 µM | TGI (RPMI-8226 leukemia): > 100 µM | TGI (RXF 393 renal): > 100 µM | TGI (SF-295 CNS): > 100 µM | TGI (SF-539 CNS): > 100 µM | TGI (SK-MEL-5 melanoma): > 100 µM | TGI (SK-OV-3 ovarian): > 100 µM | TGI (SN12C renal): > 100 µM | TGI (SNB-19 CNS): > 100 µM | TGI (SNB-75 CNS): > 100 µM | TGI (SR leukemia): > 100 µM | TGI (SW-620 colon): > 100 µM | TGI (TK-10 renal): > 100 µM | TGI (U251 CNS): > 100 µM | TGI (UACC-257 melanoma): > 100 µM | TGI (UACC-62 melanoma): > 100 µM | TGI (UO-31 renal): > 100 µM

COc1ccc(Cl)cc1NC(=O)c1cccc([N+](=O)[O-])c1O
TGI (786-0 renal): 58.7 µM | TGI (A498 renal): 35.4 µM | TGI (A549 NSCLC): 45.2 µM | TGI (ACHN renal): > 70.4 µM | TGI (BT-549 breast): 27.4 µM | TGI (CAKI-1 renal): > 64.8 µM | TGI (CCRF-CEM leukemia): > 100 µM | TGI (COLO 205 colon): 32 µM | TGI (DLD-1 colon): > 100 µM | TGI (DU-145 prostate): > 100 µM | TGI (EKVX NSCLC): 51.4 µM | TGI (HCC-2998 colon): 62.1 µM | TGI (HCT-116 colon): 43.3 µM | TGI (HCT-15 colon): > 100 µM | TGI (HL-60(TB) leukemia): > 69.6 µM | TGI (HOP-18 NSCLC): 8.79 µM | TGI (HOP-62 NSCLC): 21.4 µM | TGI (HOP-92 NSCLC): 16.6 µM | TGI (HS 578T breast): 70.2 µM | TGI (HT29 colon): > 95.6 µM | TGI (IGROV1 ovarian): > 92.5 µM | TGI (K-562 leukemia): > 100 µM | TGI (KM12 colon): > 72 µM | TGI (KM20L2 colon): 89.9 µM | TGI (LOX IMVI melanoma): > 84.2 µM | TGI (LXFL 529 NSCLC): > 100 µM | TGI (M14 melanoma): > 100 µM | TGI (M19-MEL melanoma): > 100 µM | TGI (MALME-3M melanoma): 19.3 µM | TGI (MCF7 breast): 66.2 µM | TGI (MDA-MB-231 breast): > 100 µM | TGI (MDA-MB-435): > 100 µM | TGI (MDA-N): > 100 µM | TGI (MOLT-4 leukemia): > 100 µM | TGI (NCI-H226 lung): 64.9 µM | TGI (NCI-H23 lung): 40.7 µM | TGI (NCI-H460 lung): > 81.2 µM | TGI (NCI-H522 lung): 38.6 µM | TGI (NCI/ADR-RES ovarian): 64.4 µM | TGI (OVCAR-3 ovarian): 33 µM | TGI (OVCAR-4 ovarian): > 88.3 µM | TGI (OVCAR-5 ovarian): > 100 µM | TGI (OVCAR-8 ovarian): > 100 µM | TGI (PC-3 prostate): > 100 µM | TGI (RPMI-8226 leukemia): > 69.5 µM | TGI (RXF 393 renal): 53.2 µM | TGI (SF-268 CNS): > 100 µM | TGI (SF-295 CNS): 55.3 µM | TGI (SF-539 CNS): 33 µM | TGI (SK-MEL-2 melanoma): 24.8 µM | TGI (SK-MEL-28 melanoma): > 91.4 µM | TGI (SK-MEL-5 melanoma): 14.7 µM | TGI (SK-OV-3 ovarian): > 77.9 µM | TGI (SN12C renal): > 75.3 µM | TGI (SNB-19 CNS): > 100 µM | TGI (SNB-75 CNS): > 88.3 µM | TGI (SNB-78 CNS): > 100 µM | TGI (SR leukemia): > 76.1 µM | TGI (SW-620 colon): > 100 µM | TGI (T-47D breast): > 100 µM | TGI (TK-10 renal): > 100 µM | TGI (U251 CNS): > 62.7 µM | TGI (UACC-257 melanoma): > 67.9 µM | TGI (UACC-62 melanoma): 24.3 µM | TGI (UO-31 renal): 39.8 µM
